{"source": "patent US6395896B2", "about": "“Pyridazine derivatives, manufacturing method and related composition” (Shiseido Co., Ltd., priority 1999, dated 2002)", "key": {"[1]": {"test": "Drug stabilization effect (photostabilizer, sunlight exposure)", "set-up": "key to Sunlight exposure (80 MJ) Appearance: A: No change; B: No almost change; C: Yes change", "details": "for Sunlight exposure (80 MJ) Appearance / Sunlight exposure (80 MJ) Residual yield [%]: photostabilizer 0.05, amounts wt %", "experimental": "Next, the photo stabilization effect and changes in appearance in drug compositions were studied according to the following evaluation formulation.\nEach test sample was prepared. Appearance changes of the samples exposed to sunlight (80 MJ) was observed (visual evaluation). Also, residual yield was measured by liquid chromatography."}, "[2]": {"test": "Pigment stabilization effect (sequestering agent combination)", "set-up": "key to Sunlight exposure (80 MJ) Appearance: A: No change; B: No almost change; C: Yes change; key to Sunlight exposure (80 MJ) ΔE: color difference ΔE in Lab space vs. color before sunlight exposure", "details": "amounts wt %", "experimental": "First of all, the photostabilization effect and appearance changes of a composition for each pigment were studied by the following evaluation formulation.\nEach test sample was prepared. Observation of appearance changes (visual evaluation) and measurement of color difference (ΔE) were carried out for samples exposed to sunlight (around 80 MJ).\nColor difference was measured by Lab coordinate system with spectrophotometer. Color difference was calculated based on the color before sunlight exposure. Namely, from the measured value (L1,a1,b1) before sunlight exposure, color difference (ΔE) was calculated by following formula."}, "[3]": {"details": "drug 2-o-α-α-glucopyranosyl-L-ascorbic acid 2.0"}, "[4]": {"details": "drug Dibutylhydroxytoluene 0.01"}, "[5]": {"details": "drug Dipotassium glycyrrhizinate 0.05"}, "[6]": {"details": "drug L-ascorbic acid 2-(dl-α-tocopheryl hydrogen phosphate) potassium salt 0.01"}, "[7]": {"details": "drug combined with photostabilizer, sunlight 80 MJ, summary of Table 23"}, "[8]": {"details": "colorant Blue No. 1 0.0001, photostabilizer 0.02 + Sodium metaphosphate 0.03"}, "[9]": {"details": "colorant Blue No. 1 0.0001, photostabilizer 0.02 + Trisodium ethylenediamine tetraacetate 0.03"}, "[10]": {"details": "colorant Blue No. 1 0.0001, photostabilizer 0.02 + Trisodium hydroxyethyl ethylenediamine triacetate 0.03"}, "[11]": {"details": "colorant Blue No. 1 0.0001, photostabilizer 0.02, no sequestering agent"}, "[12]": {"details": "colorant Green No. 3 0.0001, photostabilizer 0.02 + Sodium metaphosphate 0.03"}, "[13]": {"details": "colorant Green No. 3 0.0001, photostabilizer 0.02 + Sodium polyphosphate 0.03"}, "[14]": {"details": "colorant Green No. 3 0.0001, photostabilizer 0.02 + Trisodium ethylenediamine tetraacetate 0.03"}, "[15]": {"details": "colorant Green No. 3 0.0001, photostabilizer 0.02, no sequestering agent"}, "[16]": {"details": "colorant Red No. 106 0.0001, photostabilizer 0.02 + Sodium metaphosphate 0.02"}, "[17]": {"details": "colorant Red No. 106 0.0001, photostabilizer 0.02 + Sodium polyphosphate 0.02"}, "[18]": {"details": "colorant Red No. 106 0.0001, photostabilizer 0.02 + Trisodium ethylenediamine tetraacetate 0.02"}, "[19]": {"details": "colorant Red No. 106 0.0001, photostabilizer 0.02, no sequestering agent"}, "[20]": {"details": "colorant Red No. 213 0.0001, photostabilizer 0.03 + Sodium metaphosphate 0.05"}, "[21]": {"details": "colorant Red No. 213 0.0001, photostabilizer 0.03 + Trisodium ethylenediamine tetraacetate 0.05"}, "[22]": {"details": "colorant Red No. 213 0.0001, photostabilizer 0.03 + Trisodium hydroxyethyl ethylenediamine triacetate 0.05"}, "[23]": {"details": "colorant Red No. 213 0.0001, photostabilizer 0.03, no sequestering agent"}, "[24]": {"details": "colorant Red No. 227 0.0001, photostabilizer 0.01 + Sodium metaphosphate 0.02"}, "[25]": {"details": "colorant Red No. 227 0.0001, photostabilizer 0.01 + Trisodium ethylenediamine tetraacetate 0.02"}, "[26]": {"details": "colorant Red No. 227 0.0001, photostabilizer 0.01 + Trisodium hydroxyethyl ethylenediamine triacetate 0.02"}, "[27]": {"details": "colorant Red No. 227 0.0001, photostabilizer 0.01, no sequestering agent"}, "[28]": {"details": "colorant Red No. 401 0.001, photostabilizer 0.02 + Sodium metaphosphate 0.1"}, "[29]": {"details": "colorant Red No. 401 0.001, photostabilizer 0.02 + Sodium polyphosphate 0.1"}, "[30]": {"details": "colorant Red No. 401 0.001, photostabilizer 0.03 + Trisodium ethylenediamine tetraacetate 0.1"}, "[31]": {"details": "colorant Red No. 401 0.001, photostabilizer 0.03, no sequestering agent"}, "[32]": {"details": "colorant Yellow No. 5 0.001, photostabilizer 0.01 + Sodium metaphosphate 0.02"}, "[33]": {"details": "colorant Yellow No. 5 0.001, photostabilizer 0.01 + Sodium polyphosphate 0.02"}, "[34]": {"details": "colorant Yellow No. 5 0.001, photostabilizer 0.01 + Trisodium ethylenediamine tetraacetate 0.02"}}, "data": [{"smiles": "Oc1nncc(N2CCOCC2)c1N1CCOCC1", "note": "[4,5-Dimorpholino-3-hydroxypyridazine]", "values": [{"measurement": "Sunlight exposure (80 MJ) Appearance", "setting": "[1]; [3]", "result": "A"}, {"measurement": "Sunlight exposure (80 MJ) Residual yield [%]", "setting": "[1]; [3]", "result": 99.3, "unit": "%"}, {"measurement": "Sunlight exposure (80 MJ) Appearance", "setting": "[1]; [4]", "result": "A"}, {"measurement": "Sunlight exposure (80 MJ) Residual yield [%]", "setting": "[1]; [4]", "result": 98.8, "unit": "%"}, {"measurement": "Sunlight exposure (80 MJ) Appearance", "setting": "[1]; [5]", "result": "A"}, {"measurement": "Sunlight exposure (80 MJ) Residual yield [%]", "setting": "[1]; [5]", "result": 100.3, "unit": "%"}, {"measurement": "Sunlight exposure (80 MJ) Appearance", "setting": "[1]; [6]", "result": "A"}, {"measurement": "Sunlight exposure (80 MJ) Residual yield [%]", "setting": "[1]; [6]", "result": 99.4, "unit": "%"}, {"measurement": "Sunlight exposure (80 MJ) Appearance", "setting": "[1]; drug Salicylic acid 0.1", "result": "A"}, {"measurement": "Sunlight exposure (80 MJ) Residual yield [%]", "setting": "[1]; drug Salicylic acid 0.1", "result": 100.3, "unit": "%"}, {"measurement": "appearance changes of the composition", "setting": "[1]; [7]", "result": "small"}, {"measurement": "residual yield of a drug", "setting": "[1]; [7]", "result": "very high in comparison with other photostabilizers"}, {"measurement": "Sunlight exposure (80 MJ) Appearance", "setting": "[2]; [8]", "result": "A"}, {"measurement": "Sunlight exposure (80 MJ) ΔE", "setting": "[2]; [8]", "result": 1.00}, {"measurement": "Sunlight exposure (80 MJ) Appearance", "setting": "[2]; [9]", "result": "A"}, {"measurement": "Sunlight exposure (80 MJ) ΔE", "setting": "[2]; [9]", "result": 1.18}, {"measurement": "Sunlight exposure (80 MJ) Appearance", "setting": "[2]; [10]", "result": "A"}, {"measurement": "Sunlight exposure (80 MJ) ΔE", "setting": "[2]; [10]", "result": 1.08}, {"measurement": "Sunlight exposure (80 MJ) Appearance", "setting": "[2]; [11]", "result": "B"}, {"measurement": "Sunlight exposure (80 MJ) ΔE", "setting": "[2]; [11]", "result": 1.74}, {"measurement": "Sunlight exposure (80 MJ) Appearance", "setting": "[2]; [12]", "result": "A"}, {"measurement": "Sunlight exposure (80 MJ) ΔE", "setting": "[2]; [12]", "result": 0.28}, {"measurement": "Sunlight exposure (80 MJ) Appearance", "setting": "[2]; [13]", "result": "A"}, {"measurement": "Sunlight exposure (80 MJ) ΔE", "setting": "[2]; [13]", "result": 0.52}, {"measurement": "Sunlight exposure (80 MJ) Appearance", "setting": "[2]; [14]", "result": "A"}, {"measurement": "Sunlight exposure (80 MJ) ΔE", "setting": "[2]; [14]", "result": 0.48}, {"measurement": "Sunlight exposure (80 MJ) Appearance", "setting": "[2]; [15]", "result": "B"}, {"measurement": "Sunlight exposure (80 MJ) ΔE", "setting": "[2]; [15]", "result": 0.75}, {"measurement": "Sunlight exposure (80 MJ) Appearance", "setting": "[2]; [16]", "result": "A"}, {"measurement": "Sunlight exposure (80 MJ) ΔE", "setting": "[2]; [16]", "result": 0.77}, {"measurement": "Sunlight exposure (80 MJ) Appearance", "setting": "[2]; [17]", "result": "A"}, {"measurement": "Sunlight exposure (80 MJ) ΔE", "setting": "[2]; [17]", "result": 0.85}, {"measurement": "Sunlight exposure (80 MJ) Appearance", "setting": "[2]; [18]", "result": "A"}, {"measurement": "Sunlight exposure (80 MJ) ΔE", "setting": "[2]; [18]", "result": 0.84}, {"measurement": "Sunlight exposure (80 MJ) Appearance", "setting": "[2]; [19]", "result": "B"}, {"measurement": "Sunlight exposure (80 MJ) ΔE", "setting": "[2]; [19]", "result": 1.23}, {"measurement": "Sunlight exposure (80 MJ) Appearance", "setting": "[2]; [20]", "result": "A"}, {"measurement": "Sunlight exposure (80 MJ) ΔE", "setting": "[2]; [20]", "result": 1.38}, {"measurement": "Sunlight exposure (80 MJ) Appearance", "setting": "[2]; [21]", "result": "A"}, {"measurement": "Sunlight exposure (80 MJ) ΔE", "setting": "[2]; [21]", "result": 1.45}, {"measurement": "Sunlight exposure (80 MJ) Appearance", "setting": "[2]; [22]", "result": "A"}, {"measurement": "Sunlight exposure (80 MJ) ΔE", "setting": "[2]; [22]", "result": 1.41}, {"measurement": "Sunlight exposure (80 MJ) Appearance", "setting": "[2]; [23]", "result": "B"}, {"measurement": "Sunlight exposure (80 MJ) ΔE", "setting": "[2]; [23]", "result": 2.12}, {"measurement": "Sunlight exposure (80 MJ) Appearance", "setting": "[2]; [24]", "result": "B"}, {"measurement": "Sunlight exposure (80 MJ) ΔE", "setting": "[2]; [24]", "result": 0.84}, {"measurement": "Sunlight exposure (80 MJ) Appearance", "setting": "[2]; [25]", "result": "A"}, {"measurement": "Sunlight exposure (80 MJ) ΔE", "setting": "[2]; [25]", "result": 0.62}, {"measurement": "Sunlight exposure (80 MJ) Appearance", "setting": "[2]; [26]", "result": "A"}, {"measurement": "Sunlight exposure (80 MJ) ΔE", "setting": "[2]; [26]", "result": 0.58}, {"measurement": "Sunlight exposure (80 MJ) Appearance", "setting": "[2]; [27]", "result": "B"}, {"measurement": "Sunlight exposure (80 MJ) ΔE", "setting": "[2]; [27]", "result": 0.98}, {"measurement": "Sunlight exposure (80 MJ) Appearance", "setting": "[2]; [28]", "result": "A"}, {"measurement": "Sunlight exposure (80 MJ) ΔE", "setting": "[2]; [28]", "result": 0.66}, {"measurement": "Sunlight exposure (80 MJ) Appearance", "setting": "[2]; [29]", "result": "A"}, {"measurement": "Sunlight exposure (80 MJ) ΔE", "setting": "[2]; [29]", "result": 0.78}, {"measurement": "Sunlight exposure (80 MJ) Appearance", "setting": "[2]; [30]", "result": "A"}, {"measurement": "Sunlight exposure (80 MJ) ΔE", "setting": "[2]; [30]", "result": 0.71}, {"measurement": "Sunlight exposure (80 MJ) Appearance", "setting": "[2]; [31]", "result": "A"}, {"measurement": "Sunlight exposure (80 MJ) ΔE", "setting": "[2]; [31]", "result": 0.95}, {"measurement": "Sunlight exposure (80 MJ) Appearance", "setting": "[2]; [32]", "result": "A"}, {"measurement": "Sunlight exposure (80 MJ) ΔE", "setting": "[2]; [32]", "result": 0.36}, {"measurement": "Sunlight exposure (80 MJ) Appearance", "setting": "[2]; [33]", "result": "A"}, {"measurement": "Sunlight exposure (80 MJ) ΔE", "setting": "[2]; [33]", "result": 0.33}, {"measurement": "Sunlight exposure (80 MJ) Appearance", "setting": "[2]; [34]", "result": "A"}, {"measurement": "Sunlight exposure (80 MJ) ΔE", "setting": "[2]; [34]", "result": 0.32}]}]}
